Assay results taken from ChEMBL document CHEMBL1156425, “Proteasome inhibition induces glutathione synthesis and protects cells from oxidative stress: relevance to Parkinson disease” (J Biol Chem, 2007).
The source made the active and inactive calls. The calls are words filed in the database; no cut-off is given here. Where a SMILES comes first, the peptide text is derived from it. The star is where a group is joined. Cbz = O=C(OCc1ccccc1)*; OtBu = CC(C)(C)O*

Experiments:
PC-12 [1] = test: Inhibition of 6-hydroxydopamine induced cytotoxicity in rat PC12 cells pretreated for 24 hrs assessed as elevation of intracellular glutathione level; assay type: functional, cell-based
PC-12 [2] = test: Inhibition of hydrogen peroxide induced cytotoxicity in rat PC12 cells pretreated for 24 hrs assessed as elevation of intracellular glutathione level; assay type: functional, cell-based
PC-12 [3] = test: Increase in reduced glutathione level in rat PC12 cells after 24 hrs; assay type: functional, cell-based
PC-12 [4] = test: Increase in GLCLC subunit mRNA expression in rat PC12 cells at 1 uM after 12 hrs; assay type: functional, cell-based
PC-12 [5] = test: Reversal of increase in glutathione level in rat PC12 cells at 1 uM in presence of 10 uM SB-203580 after 24 hrs relative to control; assay type: functional
PC-12 [6] = test: Reversal of increase in glutathione level in rat PC12 cells at 1 uM in presence of 10 uM SP600125 after 24 hrs relative to control; assay type: functional
PC-12 [7] = test: Inhibition of proteosome activity in rat PC12 cells at 1 uM after 6 hrs relative to control; assay type: cell-based; design: scale not given: the % may be the effect or the level left
PC-12 [8] = test: Reversal of increase in GLCLC subunit mRNA expression in rat PC12 cells at 1 uM after 12 hrs in presence of p38 MAPK inhibitor SB-203580; assay type: functional, cell-based
PC-12 [9] = test: Reversal of increase in glutathione level in rat PC12 cells at 1 uM in presence of 30 nM cycloheximide after 24 hrs relative to control; assay type: functional
PC-12 [10] = test: Reversal of increase in glutathione level in rat PC12 cells at 1 uM in presence of 30 uM PD-98059 after 24 hrs relative to control; assay type: functional
PC-12 [11] = test: Increase in glutathione level in differentiated rat PC12 cells after 24 hrs; assay type: functional, cell-based
PC-12 [12] = test: Increase in oxidized glutathione level in rat PC12 cells at 1 uM after 24 hrs; assay type: functional, cell-based
PC-12 [13] = test: Inhibition of proteosome activity in rat PC12 cells at 0.3 uM after 6 hrs relative to control; assay type: cell-based; design: scale not given: the % may be the effect or the level left
PC-12 [14] = test: Inhibition of 300 uM 6-hydroxydopamine induced ROS production in rat PC12 cells pretreated at 1 uM for 24 hrs by MTT assay; assay type: functional, cell-based
PC-12 [15] = test: Inhibition of proteosome activity in rat PC12 cells at 1 uM after 24 hrs relative to control; assay type: cell-based; design: scale not given: the % may be the effect or the level left
PC-12 [16] = test: Increase in oxidized glutathione level in rat PC12 cells at 1 uM after 12 hrs; assay type: functional, cell-based
PC-12 [17] = test: Reversal of increase in glutathione level in rat PC12 cells at 1 uM in presence of 10 nM cycloheximide after 24 hrs relative to control; assay type: functional
PC-12 [18] = test: Inhibition of proteosome activity in rat PC12 cells at 0.3 uM after 24 hrs relative to control; assay type: cell-based; design: scale not given: the % may be the effect or the level left
PC-12 [19] = test: Increase in reduced glutathione level in rat PC12 cells at 1 uM after 24 hrs; assay type: functional
PC-12 [20] = test: Inhibition of 6-hydroxydopamine induced cytotoxicity in differentiated rat PC12 cells pretreated for 24 hrs by MTT assay; assay type: functional, cell-based
PC-12 [21] = test: Reversal of increase in glutathione level in rat PC12 cells at 1 uM in presence of 100 nM cycloheximide after 24 hrs relative to control; assay type: functional
PC-12 [22] = test: Reversal of increase in glutathione level in rat PC12 cells at 1 uM in presence of 30 uM SB-203580 after 24 hrs relative to control; assay type: functional
PC-12 [23] = test: Reversal of increase in glutathione level in rat PC12 cells at 1 uM in presence of 3 uM SB-203580 after 24 hrs relative to control; assay type: functional
PC-12 [24] = test: Reversal of increase in glutathione level in rat PC12 cells at 1 uM in presence of 3 uM BIM after 24 hrs relative to control; assay type: functional
PC-12 [25] = test: Translocation of Nrf2 protein to nucleus in rat PC12 cells at 1 uM around 6 or 9 hrs; assay type: functional, cell-based
PC-12 [26] = test: Inhibition of proteosome activity in rat PC12 cells at 0.1 uM after 24 hrs relative to control; assay type: cell-based; design: scale not given: the % may be the effect or the level left
PC-12 [27] = test: Reversal of cytoprotection activity in rat PC12 cells pretreated at 1 uM for 24 hrs in presence of p38 MAPK inhibitor SB-203580; assay type: functional, cell-based
PC-12 [28] = test: Reversal of increase in glutathione level in rat PC12 cells at 1 uM in presence of 10 uM wortmannin after 24 hrs relative to control; assay type: functional
PC-12 [29] = test: Inhibition of 200 uM hydrogen peroxide induced ROS production in rat PC12 cells pretreated for 24 hrs by MTT assay; assay type: functional, cell-based
PC-12 [30] = test: Inhibition of 300 uM hydrogen peroxide induced ROS production in rat PC12 cells pretreated at 1 uM for 24 hrs by MTT assay; assay type: functional, cell-based
PC-12 [31] = test: Inhibition of hydrogen peroxide induced cytotoxicity in rat PC12 cells pretreated for 24 hrs by MTT assay; assay type: functional, cell-based
PC-12 [32] = test: Inhibition of proteosome activity in rat PC12 cells at 0.1 uM after 6 hrs relative to control; assay type: cell-based; design: scale not given: the % may be the effect or the level left
PC-12 [33] = test: Inhibition of 6-hydroxydopamine induced cytotoxicity in differentiated rat PC12 cells pretreated for 24 hrs by lactate dehydrogenase release assay; assay type: functional, cell-based
PC-12 [34] = test: Inhibition of 6-hydroxydopamine-induced cytotoxicity in rat PC12 cells pretreated for 24 hrs by MTT assay; assay type: functional, cell-based
PC-12 [35] = test: Inhibition of 150 uM 6-hydroxydopamine induced ROS production in rat PC12 cells pretreated for 24 hrs by MTT assay; assay type: functional, cell-based
PC-12 [36] = test: Cytotoxicity against rat PC12 cells after 24 hrs by MTT assay; assay type: functional, cell-based; conditions: PC-12, 24 h

Structure (SMILES): CC(=O)N[C@@H](CS)C(=O)O
- Activity (PC-12 [1]): Active
- Activity (PC-12 [2]): Active

Structure (SMILES): CC[C@H](C)[C@H](NC(=O)OCc1ccccc1)C(=O)N[C@@H](CCC(=O)OC(C)(C)C)C(=O)N[C@@H](C)C(=O)N[C@H](C=O)CC(C)C (Cbz-IE(OtBu)AL-aldehyde)
- Activity (PC-12 [3]): Active

Structure (SMILES): CC(C)C[C@@H](C=O)NC(=O)[C@H](CC(C)C)NC(=O)[C@H](CC(C)C)NC(=O)OCc1ccccc1 (Cbz-Leu-Leu-Leu-aldehyde)
- Activity (PC-12 [3]): Active

Structure (SMILES): CC(=O)N[C@@H](CSC(=O)[C@]1([C@@H](O)C(C)C)NC(=O)[C@H](C)[C@@H]1O)C(=O)O [LACTACYSTIN]
- Activity (PC-12 [4]): Active
- Activity (PC-12 [5]): 190.5 nmol/mg
- Activity (PC-12 [6]): 341.4 nmol/mg
- Activity (PC-12 [7]): 49.7%
- Activity (PC-12 [8]): Active
- Activity (PC-12 [9]): 150 nmol/mg
- Activity (PC-12 [10]): 234 nmol/mg
- Activity (PC-12 [11]): Dose-dependent effect
- Activity (PC-12 [12]): Active
- Activity (PC-12 [13]): 70.3%
- Activity (PC-12 [14]): Active
- Activity (PC-12 [15]): 77.2%
- Activity (PC-12 [16]): inactive
- Activity (PC-12 [17]): 216.8 nmol/mg
- Activity (PC-12 [18]): 84.9%
- Activity (PC-12 [19]): 320.5 nmol/mg
- Activity (PC-12 [20]): Dose-dependent effect
- Activity (PC-12 [21]): 98.3 nmol/mg
- Activity (PC-12 [22]): 133.5 nmol/mg
- Activity (PC-12 [23]): 220 nmol/mg
- Activity (PC-12 [24]): 354 nmol/mg
- Activity (PC-12 [25]): Active
- Activity (PC-12 [26]): 94.3%
- Activity (PC-12 [3]): Dose-dependent effect
- Activity (PC-12 [27]): Active
- Activity (PC-12 [28]): 248.7 nmol/mg
- Activity (PC-12 [29]): Active
- Activity (PC-12 [30]): Active
- Activity (PC-12 [31]): Dose-dependent effect
- Activity (PC-12 [32]): 98%
- Activity (PC-12 [33]): Active
- Activity (PC-12 [34]): Dose-dependent effect
- Activity (PC-12 [35]): Active

Structure (SMILES): NCCc1cc(O)c(O)cc1O [OXIDOPAMINE]
- EC50 (PC-12 [36]): 106 µM
